Measured values as given in ChEMBL document CHEMBL6092193, “Identification of furo[2,3-d]pyrimidin-4-ylsulfanyl-1,3,4-thiadiazole derivatives as novel FLT3-ITD inhibitors” (Eur J Med Chem, 2024).
Active and inactive are the calls of the source. The calls are words filed in the database; no cut-off is given here.

Legend:
[1] = Selectivity ratio of GI50 for antiproliferative activity against human MV4-11 cells to GI50 for antiproliferative activity against human MOLM-13 cells
MV4-11 [2] = assay: Induction of cell cycle arrest in human MV4-11 cells assessed as proportion of cells at S phase at 80 nM incubated for 24 hrs by PI staining based flow cytometry (reference value: 25.97%); format: functional
MV4-11 [3] = assay: Induction of cell cycle arrest in human MV4-11 cells assessed as proportion of cells at S phase at 16 nM incubated for 24 hrs by PI staining based flow cytometry (reference value: 25.97%); format: functional
BaF3 [4] = assay: cells; details: Mus musculus, BaF3, 72 h
Description: Antiproliferative activity against mouse BaF3 cells assessed as inhibition of cell growth incubated for 72 hrs by resazurin dye based fluorescence analysis

[5] = biological target: Receptor-type tyrosine-protein kinase FLT3 (Homo sapiens) (UniProt P36888); assay: Inhibition of FLT3 in human MV4-11 cells assessed as inhibition of ERK1/2 phosphorylation at Thr202/Tyr204 residues incubated for 1 hr by immunoblot analysis; format: cell-based; details: dose lower […], dose upper 2000.0 nM
Receptor-type tyrosine-protein kinase FLT3 (Homo sapiens), sequence (P36888 whole entry): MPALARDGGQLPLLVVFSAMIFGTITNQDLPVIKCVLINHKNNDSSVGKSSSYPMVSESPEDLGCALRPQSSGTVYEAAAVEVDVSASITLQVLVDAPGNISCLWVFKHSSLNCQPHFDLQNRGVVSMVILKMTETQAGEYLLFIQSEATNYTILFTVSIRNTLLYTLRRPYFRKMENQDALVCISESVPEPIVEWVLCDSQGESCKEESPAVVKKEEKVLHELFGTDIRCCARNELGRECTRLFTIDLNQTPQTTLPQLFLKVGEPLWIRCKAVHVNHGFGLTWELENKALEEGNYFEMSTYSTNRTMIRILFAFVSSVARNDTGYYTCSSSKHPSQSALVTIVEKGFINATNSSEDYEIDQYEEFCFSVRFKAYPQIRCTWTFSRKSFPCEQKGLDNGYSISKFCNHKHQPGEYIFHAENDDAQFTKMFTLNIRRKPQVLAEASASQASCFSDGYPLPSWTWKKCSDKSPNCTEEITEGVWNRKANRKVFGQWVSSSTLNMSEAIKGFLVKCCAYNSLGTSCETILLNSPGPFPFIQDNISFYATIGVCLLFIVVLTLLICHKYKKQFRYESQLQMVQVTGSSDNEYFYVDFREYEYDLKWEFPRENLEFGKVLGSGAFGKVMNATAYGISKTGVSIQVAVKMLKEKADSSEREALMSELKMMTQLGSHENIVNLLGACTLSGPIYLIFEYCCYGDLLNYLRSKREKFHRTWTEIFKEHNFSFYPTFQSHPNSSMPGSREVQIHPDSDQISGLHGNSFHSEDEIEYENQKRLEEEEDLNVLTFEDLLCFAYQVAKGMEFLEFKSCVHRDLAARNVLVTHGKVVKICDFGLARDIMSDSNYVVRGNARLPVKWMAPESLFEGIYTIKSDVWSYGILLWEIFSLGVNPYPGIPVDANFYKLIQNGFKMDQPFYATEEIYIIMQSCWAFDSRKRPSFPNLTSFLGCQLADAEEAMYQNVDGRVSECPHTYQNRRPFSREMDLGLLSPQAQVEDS

HL-60 [6] = assay: Induction of cell cycle arrest in human HL-60 cells assessed as proportion of cells at S phase at 2000 nM incubated for 24 hrs by PI staining based flow cytometry (reference value: 36.12%); format: functional
HL-60 [7] = assay: Induction of cell cycle arrest in human HL-60 cells assessed as proportion of cells at G1 phase at 80 nM incubated for 24 hrs by PI staining based flow cytometry (reference value: 49.36%); format: functional
HL-60 [8] = assay: Induction of cell cycle arrest in human HL-60 cells assessed as proportion of cells at G2/M phase at 3.2 nM incubated for 24 hrs by PI staining based flow cytometry (reference value: 14.52%); format: functional
MV4-11 [9] = assay: Induction of cell cycle arrest in human MV4-11 cells assessed as proportion of cells at G2/M phase at 16 nM incubated for 24 hrs by PI staining based flow cytometry (reference value: 10%); format: functional
HL-60 [10] = assay: Induction of cell cycle arrest in human HL-60 cells assessed as proportion of cells at S phase at 3.2 nM incubated for 24 hrs by PI staining based flow cytometry (reference value: 36.12%); format: functional
HL-60 [11] = assay: Induction of cell cycle arrest in human HL-60 cells assessed as proportion of cells at G2/M phase at 80 nM incubated for 24 hrs by PI staining based flow cytometry (reference value: 14.52%); format: functional
HL-60 [12] = assay: Induction of cell cycle arrest in human HL-60 cells assessed as proportion of cells at subG1 phase at 3.2 nM incubated for 24 hrs by PI staining based flow cytometry (reference value: 6.94%); format: functional
HL-60 [13] = assay: Induction of cell cycle arrest in human HL-60 cells assessed as proportion of cells at S phase at 16 nM incubated for 24 hrs by PI staining based flow cytometry (reference value: 36.12%); format: functional
[14] = biological target: Receptor-type tyrosine-protein kinase FLT3 (Homo sapiens, UniProt P36888, ITD); assay: biochemical; format: cell-based, Sf9
Receptor-type tyrosine-protein kinase FLT3, sequence (P36888 whole entry, looked up, change not shown): as the sequence (P36888 whole entry) above

[15] = system: Receptor-type tyrosine-protein kinase FLT3 (Homo sapiens), P36888 [UNDEFINED MUTATION]; format: cell-based; details: BaF3, dose lower […], dose upper 2000.0 nM, time 2.0 hrs
Receptor-type tyrosine-protein kinase FLT3 (Homo sapiens), P36888 [UNDEFINED MUTATION], sequence (P36888 whole entry, looked up, change not shown): as the sequence (P36888 whole entry) above

EOL1 = assay: cells; details: Homo sapiens, EOL1, 72 h
Description: Antiproliferative activity against human EOL1 cells harboring FIP1L1-PDGFRA fusion gene assessed as inhibition of cell growth incubated for 72 hrs by resazurin dye based fluorescence analysis

MV4-11 [16] = assay: Induction of cell cycle arrest in human MV4-11 cells assessed as proportion of cells at subG1 phase at 400 nM incubated for 24 hrs by PI staining based flow cytometry (reference value: 10.44%); format: functional
MV4-11 [17] = format: functional, Homo sapiens; details: dose 400 nM; time 24 hrs
BaF3 [18] = assay: cells; details: Mus musculus, BaF3, 72 h; remark: listed apart in the source
[19] = system: Receptor-type tyrosine-protein kinase FLT3 (Homo sapiens), P36888 [UNDEFINED MUTATION]; assay: Inhibition of FLT3-ITD mutant (unknown origin) expressed in mouse BaF3 cells assessed as inhibition of STAT5 phosphorylation at Tyr694 residue at 16 to 2000 nM incubated for 2 hrs by immunoblot analysis; format: cell-based; details: dose lower […], dose upper 2000.0 nM
HL-60 [20] = assay: cells; details: Homo sapiens, HL-60, 72 h
Description: Antiproliferative activity against human HL-60 cells assessed as inhibition of cell growth incubated for 72 hrs by resazurin dye based fluorescence analysis

HL-60 [21] = assay: Induction of cell cycle arrest in human HL-60 cells assessed as proportion of cells at S phase at 400 nM incubated for 24 hrs by PI staining based flow cytometry (reference value: 36.12%); format: functional
HL-60 [22] = assay: Induction of cell cycle arrest in human HL-60 cells assessed as proportion of cells at G1 phase at 2000 nM incubated for 24 hrs by PI staining based flow cytometry (reference value: 49.36%); format: functional
HL-60 [23] = assay: Induction of cell cycle arrest in human HL-60 cells assessed as proportion of cells at S phase at 80 nM incubated for 24 hrs by PI staining based flow cytometry (reference value: 36.12%); format: functional
HL-60 [24] = assay: Induction of cell cycle arrest in human HL-60 cells assessed as proportion of cells at subG1 phase at 80 nM incubated for 24 hrs by PI staining based flow cytometry (reference value: 6.94%); format: functional
Kasumi 1 = assay: cells; details: Homo sapiens, Kasumi 1, 72 h
Description: Antiproliferative activity against human Kasumi 1 cells harboring KIT N822K mutant assessed as inhibition of cell growth incubated for 72 hrs by resazurin dye based fluorescence analysis

HL-60 [25] = assay: Induction of cell cycle arrest in human HL-60 cells assessed as proportion of cells at subG1 phase at 16 nM incubated for 24 hrs by PI staining based flow cytometry (reference value: 6.94%); format: functional
MV4-11 [26] = assay: Induction of cell cycle arrest in human MV4-11 cells assessed as proportion of cells at G2/M phase at 2000 nM incubated for 24 hrs by PI staining based flow cytometry (reference value: 10%); format: functional
[27] = biological target: Receptor-type tyrosine-protein kinase FLT3 (Homo sapiens) (UniProt P36888); assay: Inhibition of FLT3 in human MV4-11 cells assessed as inhibition of STAT5 phosphorylation at Tyr694 residue incubated for 1 hr by immunoblot analysis; format: cell-based; details: dose lower […], dose upper 2000.0 nM
[28] = system: Receptor-type tyrosine-protein kinase FLT3 (Homo sapiens), P36888 [UNDEFINED MUTATION]; format: cell-based; details: BaF3, dose lower […], dose upper 2000.0 nM, time 2.0 hrs; remark: listed apart in the source
MV4-11 [29] = assay: Induction of cell cycle arrest in human MV4-11 cells assessed as proportion of cells at subG1 phase at 80 nM incubated for 24 hrs by PI staining based flow cytometry (reference value: 10.44%); format: functional
BaF3 [30] = assay: cells; details: Mus musculus, BaF3, 72 h; remark: listed apart in the source
MV4-11 [31] = assay: Induction of cell cycle arrest in human MV4-11 cells assessed as proportion of cells at subG1 phase at 2000 nM incubated for 24 hrs by PI staining based flow cytometry (reference value: 10.44%); format: functional
HL-60 [32] = assay: Induction of cell cycle arrest in human HL-60 cells assessed as proportion of cells at G1 phase at 16 nM incubated for 24 hrs by PI staining based flow cytometry (reference value: 49.36%); format: functional
K562 = assay: cells; details: Homo sapiens, K562, 72 h
Description: Antiproliferative activity against FLT3-independent human K562 cells assessed as inhibition of cell growth incubated for 72 hrs by resazurin dye based fluorescence analysis

MV4-11 [33] = assay: Induction of cell cycle arrest in human MV4-11 cells assessed as proportion of cells at G2/M phase at 400 nM incubated for 24 hrs by PI staining based flow cytometry (reference value: 10%); format: functional
HL-60 [34] = assay: Induction of cell cycle arrest in human HL-60 cells assessed as proportion of cells at G2/M phase at 400 nM incubated for 24 hrs by PI staining based flow cytometry (reference value: 14.52%); format: functional

Work on `COc1ccc(NC(=O)Nc2nnc(Sc3ncnc4oc(-c5ccccc5)cc34)s2)cc1` yielded a RatioGI50 [1] of 100, an Activity (MV4-11 [2]) of 3.85% and an Activity (MV4-11 [3]) of 8.07%. The GI50 (BaF3 [4]) was > 10 µM, the inhibition [5] was “Dose-dependent-effect” and the Activity (HL-60 [6]) was 37.26%. The Activity (HL-60 [7]) was 49.29%, the Activity (HL-60 [8]) was 13.04% and the Activity (MV4-11 [9]) was 2.63%. For the same molecule, the Activity (HL-60 [10]) was 37.01%, the Activity (HL-60 [11]) was 13.68% and the Activity (HL-60 [12]) was 7.88%. For the same molecule, the Activity (HL-60 [13]) was 37.68%, the IC50 [14] was 0.031 µM and the inhibition [15] was “Active”. For the same molecule, the GI50 (EOL1) was 0.039 µM, the Activity (MV4-11 [16]) was 32.95% and the Activity (MV4-11 [17]) was 94.09%. The GI50 (BaF3 [18]) was 0.054 µM, the inhibition [19] was “Active” and the GI50 (HL-60 [20]) was > 10 µM. The Activity (HL-60 [21]) was 35.91%, the Activity (HL-60 [22]) was 48.8% and the Activity (HL-60 [23]) was 37.03%. It also gave an Activity (HL-60 [24]) of 8.17%, a GI50 (Kasumi 1) of 3.06 µM and an Activity (HL-60 [25]) of 7.48%. For the same molecule, the Activity (MV4-11 [26]) was 1.1%, the inhibition [27] was “Dose-dependent-effect” and the inhibition [28] was “Active”. For the same molecule, the Activity (MV4-11 [29]) was 26.76%, the GI50 (BaF3 [30]) was 0.277 µM and the Activity (MV4-11 [31]) was 38.33%. The Activity (HL-60 [32]) was 48.76%, the GI50 (K562) was > 10 µM and the Activity (MV4-11 [33]) was 1.43%. It also gave an Activity (HL-60 [34]) of 13.74%.
